Assay results: ChEMBL document CHEMBL1201862, “PubChem BioAssay data set” (2004)
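These data come from cells grown in 96-well plates and exposed to compound for 48 hours at five concentrations. GI50: concentration for 50% inhibition of growth.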 Calls of active or inactive are those of the source. No stated cut-off is given here; in the data, active = GI50 up to about 1.1 µM and inactive = higher.

Legend:
Assay in all cases: NCI tumour cell line growth inhibition, 48 h
Hs-578T = tested on: Hs-578T
SN12C = tested on: SN12C
MDA-MB-231 = tested on: MDA-MB-231
A498 = tested on: A498
A549 = tested on: A549
SNB-75 = tested on: SNB-75
OVCAR-8 = tested on: OVCAR-8
NCI-H226 = tested on: NCI-H226
CAKI-1 = tested on: CAKI-1
CCRF-CEM = tested on: CCRF-CEM
HCC 2998 = tested on: HCC 2998
K562 = tested on: K562
SF-295 = tested on: SF-295
M14 = tested on: M14
EKVX = tested on: EKVX
Malme-3M = tested on: Malme-3M
DU-145 = tested on: DU-145
NCI/ADR-RES = tested on: NCI/ADR-RES
NCI-H522 = tested on: NCI-H522
ACHN = tested on: ACHN

Measured: GI50

Nc1nc(Cl)cc(NCC2(CO)CC(CCc3ccccc3)C2)n1 (stereo not given)
inactive: Hs-578T > 59.4 µM | SN12C > 100 µM | MDA-MB-231 > 81.1 µM | A498 > 100 µM | A549 9.16 µM | SNB-75 20.3 µM | OVCAR-8 21.8 µM | NCI-H226 > 100 µM | CAKI-1 > 100 µM | CCRF-CEM > 58.9 µM | HCC 2998 > 100 µM | K562 1.42 µM | SF-295 5.9 µM | M14 > 100 µM | EKVX 2.83 µM | Malme-3M > 100 µM | DU-145 > 100 µM | NCI/ADR-RES 4.14 µM | NCI-H522 17.6 µM | ACHN > 29 µM

Cc1ccc(S(=O)(=O)C2=Cc3ccc(C(F)(F)F)cc3C2(O)c2cccc(C(F)(F)F)c2)cc1 (stereo not given)
inactive: Hs-578T 3.13 µM | SN12C 1.88 µM | MDA-MB-231 2.08 µM | A498 2 µM | A549 2.99 µM | SNB-75 2.93 µM | OVCAR-8 1.41 µM | NCI-H226 2.15 µM | CAKI-1 4.05 µM | CCRF-CEM 2.56 µM | HCC 2998 2.43 µM | K562 1.99 µM | SF-295 2.45 µM | M14 2.4 µM | EKVX 2.87 µM | Malme-3M 2.02 µM | DU-145 3.25 µM | NCI/ADR-RES 2.71 µM | NCI-H522 1.66 µM | ACHN 2.46 µM
